Assay results as given in ChEMBL document CHEMBL5214928, “DEAD-Box Helicase DDX3X as a Host Target against Emerging Viruses: New Insights for Medicinal Chemical Approaches” (J Med Chem, 2022).

How the values were obtained:
[1] = biological target: T1, ATP-dependent RNA helicase DDX3X (Homo sapiens, UniProt O00571); test: Binding affinity to DDX3X (unknown origin) assessed as inhibition constant
[2] = Selectivity index, ratio of CC50 for African green monkey Vero cells to EC50 for RSV infected in African green monkey Vero cells; assay type: toxicity; conditions: read-out: Ratio CC50/EC50
[3] = test system: Hepatitis C virus; test: Antiviral activity against HCV-1 infected in human Huh-7 cells assessed as reduction in viral replication; assay type: functional, organism-based, Hepacivirus hominis; conditions: genotype 1, Huh-7
[4] = Cytotoxicity against African green monkey Vero E6 cells assessed as reduction in cell viability; assay type: toxicity, cell-based, Vero C1008; conditions: chlorocebus sabaeus
[5] = test system: Zika virus; test: Antiviral activity against ZIKV infected in African green monkey Vero cells assessed as reduction in viral replication incubated for 22 hrs by plaque assay; assay type: functional, organism-based
[6] = Cytotoxicity against African green monkey Vero cells assessed as reduction in cell viability incubated for 22 hrs by XTT assay; assay type: toxicity, cell-based; conditions: chlorocebus sabaeus
[7] = test system: dengue virus type 2; test: Antiviral activity against DENV-2 infected in African green monkey Vero cells assessed as reduction in viral replication incubated for 22 hrs by plaque assay; assay type: functional, organism-based
[8] = test system: SARS-CoV-2; test: Antiviral activity against SARS-CoV-2 isolate 2019-nCoV/Italy-INMI1 infected in African green monkey Vero E6 cells assessed as reduction in viral replication at MOI of 0.01 incubated for 5 days by qRT-PCR analysis; assay type: functional, organism-based; conditions: Severe acute respiratory syndrome coronavirus 2, 2019-nCoV/Italy-INMI1, Vero C1008, 120 h
[9] = Selectivity index, ratio of CC50 for African green monkey Vero cells to EC50 for WNV infected in African green monkey Vero cells; assay type: toxicity; conditions: read-out: Ratio CC50/EC50
[10] = test system: West Nile virus; test: Antiviral activity against WNV infected in African green monkey Vero cells assessed as reduction in viral replication incubated for 22 hrs by plaque formation assay; assay type: functional, organism-based
[11] = Selectivity index, ratio of CC50 for African green monkey Vero cells to EC50 for ZIKV infected in African green monkey Vero cells; assay type: toxicity; conditions: read-out: Ratio CC50/EC50
[12] = test system: Huh-7; test: Cytotoxicity against human Huh-7 cells assessed as reduction in cell viability; assay type: functional
[13] = Selectivity index, ratio of CC50 for African green monkey Vero cells to EC50 for DENV-2 infected in African green monkey Vero cells; assay type: toxicity; conditions: read-out: Ratio CC50/EC50
[14] = test system: Respiratory syncytial virus; test: Antiviral activity against RSV infected in African green monkey Vero cells assessed as reduction in viral replication incubated for 22 hrs by plaque formation assay; assay type: functional, organism-based; conditions: human respiratory syncytial virus
[15] = Selectivity index, ratio of CC50 for African green monkey Vero cells to EC50 for hPIV-3 infected in African green monkey Vero cells; assay type: toxicity; conditions: read-out: Ratio CC50/EC50
[16] = Selectivity index, ratio of CC50 for human Huh-7 cells to EC50 for HCV-1 infected in human Huh-7 cells; assay type: toxicity, cell-based; conditions: read-out: Ratio CC50/EC50
[17] = test system: Human respirovirus 3; test: Antiviral activity against hPIV-3 infected in African green monkey Vero cells assessed as reduction in viral replication incubated for 22 hrs by plaque formation assay; assay type: functional, organism-based; conditions: Human respirovirus 3, Vero
[18] = Half life in mouse administered intraperitoneally; assay type: ADME; conditions: in vivo, route ip
[19] = test system: Japanese encephalitis virus; test: Antiviral activity against JEV SA14-14-2 infected in hamster BHK-21 cells assessed as reduction in viral replication by plaque formation assay; assay type: functional, organism-based; conditions: SA14-14-2, BHK-21
[20] = Selectivity index, ratio of CC50 for hamster BHK-21 cells to EC50 for JEV SA14-14-2 infected in hamster BHK-21 cells; assay type: toxicity, cell-based; conditions: read-out: Ratio CC50/EC50
[21] = Cytotoxicity against hamster BHK-21 cells assessed as reduction in cell viability at MOI of 0.01 incubated for 48 hrs by plaque formation assay; assay type: toxicity, cell-based, Mesocricetus auratus
[22] = Selectivity index, ratio of CC50 for human Huh-7 cells to EC50 for WNV infected in human Huh-7 cells; assay type: toxicity, cell-based; conditions: read-out: Ratio CC50/EC50
[23] = Selectivity index, ratio of CC50 for human LucUbiNeo-ET cells to EC50 for HCV-1 infected in human LucUbiNeo-ET cells; assay type: toxicity, cell-based; conditions: read-out: Ratio CC50/EC50
[24] = Selectivity index, ratio of CC50 for human Huh-7 cells to EC50 for DENV-2 New Guinea C infected in human Huh-7 cells; assay type: toxicity, cell-based; conditions: read-out: Ratio CC50/EC50
[25] = Selectivity index, ratio of CC50 for hepatoma cells (unknown origin) to EC50 for HCV-1 infected in hepatoma cells (unknown origin); assay type: toxicity, cell-based; conditions: read-out: Ratio CC50/EC50
[26] = test system: West Nile virus; test: Antiviral activity against WNV infected in human Huh-7 cells assessed as reduction in viral replication; assay type: functional, organism-based
[27] = test system: dengue virus type 2; test: Antiviral activity against DENV-2 New Guinea C infected in human Huh-7 cells assessed as reduction in viral replication; assay type: functional, organism-based
[28] = Cytotoxicity against PBMC (unknown origin) assessed as reduction in cell viability; assay type: toxicity, cell-based
[29] = test system: Human immunodeficiency virus 1; test: Antiviral activity against HIV-1 NL4-3 infected in PBMC (unknown origin) assessed as reduction in viral replication; assay type: functional, organism-based; conditions: Human immunodeficiency virus 1, NL4-3, PBMC
[30] = Half life in rat administered intravenously; assay type: ADME; conditions: in vivo, route iv
[31] = test system: Hepatitis C virus; test: Antiviral activity against HCV-1 infected in human LucUbiNeo-ET cells assessed as reduction in viral replication incubated for 2 days by luminometry; assay type: functional, organism-based, Hepacivirus hominis; conditions: genotype 1, LucUbiNeo-ET, 48 h
[32] = Cytotoxicity against human LucUbiNeo-ET cells assessed as reduction in cell viability by MTT assay; assay type: functional
[33] = Selectivity index, ratio of CC50 for PBMC (unknown origin) to EC50 for HIV-1 NL4-3 infected in PBMC (unknown origin); assay type: toxicity; conditions: read-out: Ratio CC50/EC50
[34] = biological target: T1, ATP-dependent RNA helicase DDX3X; test: Inhibition of recombinant DDX3X (unknown origin) helicase activity using 6-FAM-labeled dsRNA as substrate incubated for 30 mins by fluorescence based assay
[35] = test system: Human immunodeficiency virus 1; test: Antiviral activity against recombinant HIV-1 infected in CD4+ human HeLa cells assessed as reduction in viral replication; assay type: functional, organism-based; conditions: Human immunodeficiency virus 1, HeLa
[36] = Selectivity index, ratio of CC50 for human HeLa cells to EC50 for recombinant HIV-1 infected in CD4+ human HeLa cells; assay type: toxicity, cell-based; conditions: read-out: Ratio CC50/EC50
[37] = test system: HeLa; test: Cytotoxicity against human HeLa cells assessed as reduction in cell viability incubated for 72 hrs with replacement of medium containing compound for every 24 hrs by MTS based Cell Titer 96 viability assay; assay type: functional
[38] = biological target: T1, ATP-dependent RNA helicase DDX3X; test: Inhibition of DDX3X (unknown origin) helicase activity
[39] = Half life in mouse administered intravenously; assay type: ADME; conditions: in vivo, route iv
[40] = test system: Hepatitis C virus; test: Antiviral activity against HCV-1 infected in hepatoma cells (unknown origin) assessed as reduction in viral replication; assay type: functional, organism-based, Hepacivirus hominis; conditions: genotype 1, Hepatoma cell line
[41] = test system: Hepatoma cell line; test: Cytotoxicity against hepatoma cells (unknown origin) assessed as reduction in cell viability; assay type: functional

T1 sequence (O00571 whole entry): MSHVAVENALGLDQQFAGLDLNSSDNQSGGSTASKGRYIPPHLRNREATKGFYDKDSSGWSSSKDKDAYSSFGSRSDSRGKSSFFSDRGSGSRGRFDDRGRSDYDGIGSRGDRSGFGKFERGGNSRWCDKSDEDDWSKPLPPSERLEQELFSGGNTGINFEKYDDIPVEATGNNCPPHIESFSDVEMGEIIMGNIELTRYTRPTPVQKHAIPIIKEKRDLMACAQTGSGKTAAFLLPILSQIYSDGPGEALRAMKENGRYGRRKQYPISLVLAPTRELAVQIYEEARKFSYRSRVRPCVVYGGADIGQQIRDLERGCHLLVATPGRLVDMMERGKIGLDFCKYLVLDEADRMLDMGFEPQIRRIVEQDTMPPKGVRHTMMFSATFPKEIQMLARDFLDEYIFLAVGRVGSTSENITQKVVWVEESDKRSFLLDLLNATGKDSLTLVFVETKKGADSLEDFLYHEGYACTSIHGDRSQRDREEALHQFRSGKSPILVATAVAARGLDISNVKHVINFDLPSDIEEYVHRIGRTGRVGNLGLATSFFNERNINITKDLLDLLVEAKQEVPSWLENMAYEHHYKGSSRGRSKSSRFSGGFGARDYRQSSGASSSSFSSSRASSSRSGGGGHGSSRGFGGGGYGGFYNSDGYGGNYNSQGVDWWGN

COc1cc(/C=C2\SC(=S)N(CCC(=O)Nc3ccccc3O)C2=O)cc(OC)c1OC
Ki [1]: 3.9 µM

COc1ccc(/C=C2\SC(=S)N(CCC(=O)Nc3cccc(O)c3)C2=O)cc1
Ki [1]: 2 µM

COc1ccc(Cn2c3ncnc4c(ncn4Cc4ccc(OC)cc4)c-3nc2=O)cc1
selectivity ratio [2]: 2.2
EC50 [3]: 2 µM
CC50 [4]: > 30 µM
EC50 [5]: 7 µM
CC50 at 22 h [6]: 29.7 µM
EC50 [7]: 8.5 µM
EC50 [8]: < 5 µM
selectivity ratio [9]: 3.5
EC50 [10]: 8.5 µM
selectivity ratio [11]: 4.2
CC50 [12]: < 10 µM
selectivity ratio [13]: 3.5
EC50 [14]: 13.4 µM
selectivity ratio [15]: 1
selectivity ratio [16]: < 5
EC50 [17]: 28.2 µM
half-life [18]: 7 h

Cc1ccccc1NC(=O)Nc1cccc([N+](=O)[O-])c1
EC50 [19]: 10 µM
selectivity ratio [20]: > 5
CC50 at 48 h [21]: > 50 µM

CCCCc1cn(-c2ccc(NC(=O)Nc3ccccc3C)cc2)nn1
selectivity ratio [22]: > 12
selectivity ratio [23]: 51
EC50 [19]: 20 µM
selectivity ratio [20]: > 2.5
CC50 at 48 h [21]: > 50 µM
selectivity ratio [24]: 78
selectivity ratio [25]: > 200
EC50 [26]: 16.5 µM
EC50 [27]: 2.55 µM
CC50 [28]: > 100 µM
EC50 [29]: 1.1 µM
half-life [30]: 3 h
EC50 [31]: 0.97 µM
CC50 [32]: 49.8 µM
selectivity ratio [33]: 91

O=[N+]([O-])c1cccc(S(=O)(=O)Nc2ccccc2O)c1
IC50 [34]: 0.36 µM

O=C(CCN1C(=O)/C(=C/c2cccc(Br)c2)SC1=S)Nc1cccc(O)c1
Ki [1]: 90 µM

OCCc1cc(Nc2ccc(F)cc2)nc(N/N=C/c2ccccc2O)n1
EC50 [35]: 6.5 µM
selectivity ratio [36]: 10
CC50 [37]: 65 µM

Oc1ccccc1/C=N/Nc1nc(Nc2cccc(Cl)c2)nc(NN2CCOCC2)n1
Ki [1]: 0.4 µM

COc1cccc(NC(=O)CCN2C(=O)/C(=C/c3ccccc3O)SC2=S)c1
Ki [1]: 10 µM

Cc1ccccc1NC(=O)Nc1ccc(-n2cc(CO)nn2)cc1
Ki [38]: 17.5 µM

C(=N\Nc1nc(Nc2ccccc2)nc(Nc2ccccc2)n1)/c1ccccc1
Ki [1]: 7.5 µM

CC(C)Cc1cn(-c2ccc(NC(=O)Nc3ccc4cnccc4c3)cc2)nn1
IC50 [38]: 0.15 µM
selectivity ratio [23]: 94
EC50 [31]: 0.9 µM
CC50 [32]: > 312 µM
half-life [39]: 5 h

CCCCCCCCCCCCCCCCCCNC1=NC(=O)C2C(N=CN2[C@@H]2O[C@H](CO)[C@@H](O)[C@H]2O)C(=O)N1 (stereo partly drawn)
selectivity ratio [22]: > 195
EC50 [40]: 18 µM
selectivity ratio [25]: > 35
EC50 [26]: 0.51 µM
CC50 [41]: > 630 µM
CC50 [12]: > 100 µM

Oc1ccc(Cl)cc1/C=N/Nc1nc(NCc2ccccc2)nc(NN2CCOCC2)n1
Ki [1]: 1.9 µM

COc1cc(/C=C2\SC(=S)N(CCC(=O)Nc3ccccc3Cl)C2=O)cc(OC)c1OC
Ki [1]: 0.1 µM

COc1ccc(/C=C2\SC(=S)N(CCC(=O)Nc3ccccc3OC)C2=O)cc1
Ki [1]: 11 µM

O=[N+]([O-])c1cccc(/C=N/Nc2nc(NCc3ccccc3)nc(NNc3ccc(F)cc3)n2)c1O
Ki [1]: 4 µM

O=C(CCN1C(=O)/C(=C/c2ccc3c(c2)OCO3)SC1=S)Nc1ccccc1[N+](=O)[O-]
Ki [1]: 1 µM

O=C(NCCN1C(=O)/C(=C/c2ccccc2O)SC1=S)c1cccc(Br)c1
Ki [1]: 4.2 µM
